# Data reported in ChEMBL document CHEMBL3046944, “NEW QUASSINOIDS FROM AILANTHUS EXCELSA” (Med Chem Res, 2004).
# The source made the active and inactive calls. No cut-off for these calls is given here.
# Tests used:
# Plasmodium falciparum [1] = assay: Antimalarial activity against Plasmodium falciparum assessed as growth inhibition at 0.2 uM; type: functional, organism-based
# Plasmodium falciparum [2] = assay: Antimalarial activity against Plasmodium falciparum assessed as growth inhibition at 25 nM; type: functional, organism-based
Structure (SMILES),growth inhibition (GI) (Plasmodium falciparum [1]),growth inhibition (GI) (Plasmodium falciparum [2])
CCC(C)C(=O)O[C@H]1C(=O)O[C@@H]2C[C@H]3C(C)=C[C@H](O)[C@@H](O)[C@]3(C)[C@H]3[C@@]4(O)OC[C@]32[C@@H]1[C@@H](C)[C@H]4O (some centres not stated),Active,
CCN(CC)CCCC(C)Nc1ccnc2cc(Cl)ccc12 (configuration not stated),,Active
